According to ChEMBL document CHEMBL1201862, “PubChem BioAssay data set” (2004):
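In this assay, cells in 96-well plates receive the compound at five concentrations for 48 hours. Endpoints are linearly interpolated between the surrounding concentrations. Here, GI50 denotes the concentration required for 50% inhibition of growth.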 The source made the active and inactive calls. Cut-off read from the data, not from the text of the source: active = GI50 up to about 1.1 µM and inactive = higher.

Key:
Experiment in all cases: NCI anticancer screen, dose series, 48 h
SNB-75 = tested on: SNB-75
PC-3 = tested on: PC-3
MDA-MB-231 = tested on: MDA-MB-231
U-251 = tested on: U-251
T47D = tested on: T47D
HOP-92 = tested on: HOP-92
786-0 = tested on: 786-0
MOLT-4 = tested on: MOLT-4
OVCAR-8 = tested on: OVCAR-8
NCI-H460 = tested on: NCI-H460
COLO 205 = tested on: COLO 205
TK-10 = tested on: TK-10
UACC-257 = tested on: UACC-257
NCI-H23 = tested on: NCI-H23
SNB-19 = tested on: SNB-19
ACHN = tested on: ACHN
A549 = tested on: A549
HCT-116 = tested on: HCT-116
HOP-62 = tested on: HOP-62
HCC 2998 = tested on: HCC 2998

Row | Compound | GI50 (SNB-75) | GI50 (PC-3) | GI50 (MDA-MB-231) | GI50 (U-251) | GI50 (T47D) | GI50 (HOP-92) | GI50 (786-0) | GI50 (MOLT-4) | GI50 (OVCAR-8) | GI50 (NCI-H460) | GI50 (COLO 205) | GI50 (TK-10) | GI50 (UACC-257) | GI50 (NCI-H23) | GI50 (SNB-19) | GI50 (ACHN) | GI50 (A549) | GI50 (HCT-116) | GI50 (HOP-62) | GI50 (HCC 2998)
1 | CSc1ncc2c(n1)-c1ccccc1OC2N1CCOCC1 (stereo not given) | 44.5 µM (inactive) | 31.6 µM (inactive) | 83.9 µM (inactive) | > 100 µM (inactive) | 24.1 µM (inactive) | 41.9 µM (inactive) | 75.7 µM (inactive) | 43.3 µM (inactive) | > 100 µM (inactive) | 41.5 µM (inactive) | > 100 µM (inactive) | 43.3 µM (inactive) | 81.8 µM (inactive) | > 100 µM (inactive) | 68.2 µM (inactive) | 80.9 µM (inactive) | 97.7 µM (inactive) | 69.7 µM (inactive) |  | 
2 | CC(C)CC1c2[nH]c3ccccc3c2C[C@H]2C(=O)NC(Cc3c[nH]c4ccccc34)C(=O)N12 (stereo not given in full) |  | 11.1 µM (inactive) | 20.3 µM (inactive) | 12.2 µM (inactive) | 6.61 µM (inactive) | 13.7 µM (inactive) | 17.5 µM (inactive) | 13.2 µM (inactive) | 15.9 µM (inactive) |  | 17.8 µM (inactive) | 4.93 µM (inactive) | 14.3 µM (inactive) | 17.7 µM (inactive) | 16.8 µM (inactive) | 17.8 µM (inactive) | 12.5 µM (inactive) | 11.2 µM (inactive) | 20.6 µM (inactive) | 
3 | Cc1ccc2nc(C(=O)O)c(=O)[nH]c2c1 |  | > 100 µM (inactive) | > 100 µM (inactive) | > 100 µM (inactive) | > 100 µM (inactive) | > 100 µM (inactive) | > 100 µM (inactive) | > 100 µM (inactive) | > 100 µM (inactive) | > 100 µM (inactive) | > 100 µM (inactive) | > 100 µM (inactive) | > 100 µM (inactive) | > 100 µM (inactive) | > 100 µM (inactive) | > 100 µM (inactive) | > 100 µM (inactive) | > 100 µM (inactive) | > 100 µM (inactive) | > 100 µM (inactive)
4 | Cc1c(S(=O)(=O)N/C(=N\O)Nc2ccc(Cl)c(Cl)c2)sc2ccc(Cl)cc12 |  | 18.6 µM (inactive) | 23.8 µM (inactive) | 21.3 µM (inactive) | 14.4 µM (inactive) | 22.2 µM (inactive) | 19.7 µM (inactive) | 34.1 µM (inactive) | 21.9 µM (inactive) |  | 17.9 µM (inactive) | 17.7 µM (inactive) | 19.9 µM (inactive) | 17.8 µM (inactive) | 19.1 µM (inactive) | 12.1 µM (inactive) | 24.7 µM (inactive) | 17.8 µM (inactive) | 18.5 µM (inactive) | 19.9 µM (inactive)
5 | C/C(=N\NC(=S)N1CCC(N2CCCCC2)CC1)c1ccccn1 | 2.87 µM (inactive) | 3.56 µM (inactive) | 1.9 µM (inactive) | 3.8 µM (inactive) | 1.39 µM (inactive) | 2.92 µM (inactive) | 12.7 µM (inactive) | 0.586 µM (active) | 3.21 µM (inactive) | 2.73 µM (inactive) | 2.8 µM (inactive) | 2.38 µM (inactive) | 2.9 µM (inactive) | 3.29 µM (inactive) | 3.7 µM (inactive) | 2.41 µM (inactive) | 3.15 µM (inactive) | 2.79 µM (inactive) |  | 11.7 µM (inactive)
6 | Cn1cc(S(=O)(=O)NC(=O)Nc2ccc(Cl)cc2)c(=O)c2ccc(Cl)cc21 | > 100 µM (inactive) | 76.6 µM (inactive) | > 100 µM (inactive) | 93.1 µM (inactive) | > 100 µM (inactive) |  | > 100 µM (inactive) | 85.5 µM (inactive) | > 100 µM (inactive) | > 100 µM (inactive) |  | > 100 µM (inactive) | > 100 µM (inactive) | 70 µM (inactive) | 87.9 µM (inactive) | 34.2 µM (inactive) | > 100 µM (inactive) | 84.1 µM (inactive) | > 100 µM (inactive) | 85.3 µM (inactive)
7 | O=[N+]([O-])/C(C(Cl)=C(Cl)Cl)=C(\N1CCCCC1)n1cncn1 | 23 µM (inactive) | 16.4 µM (inactive) | 14.8 µM (inactive) | 13.3 µM (inactive) | 14.8 µM (inactive) |  | 20.4 µM (inactive) | > 24.2 µM (inactive) | 19.5 µM (inactive) | 26.2 µM (inactive) | 15.7 µM (inactive) | 17.2 µM (inactive) | 17.5 µM (inactive) | 15.2 µM (inactive) | 17.7 µM (inactive) | 17.7 µM (inactive) | 19.7 µM (inactive) | 22.2 µM (inactive) | 19.6 µM (inactive) | 20 µM (inactive)
8 | O=c1[nH]c(=S)[nH]c(-c2ccccc2)c1Cc1c(O)ccc2ccccc12 [CAMBINOL] | 25.6 µM (inactive) | 37.2 µM (inactive) | 38.6 µM (inactive) | 36.1 µM (inactive) | 24.4 µM (inactive) | 26.1 µM (inactive) | 34.9 µM (inactive) | 26.1 µM (inactive) | 38 µM (inactive) | 48.2 µM (inactive) | 21.5 µM (inactive) | 29.1 µM (inactive) | 27.2 µM (inactive) | 29.6 µM (inactive) | 37.2 µM (inactive) | 34 µM (inactive) | 32.2 µM (inactive) | 24.7 µM (inactive) | 64 µM (inactive) | 
9 | Brc1ccc(-c2cn3ccncc3n2)cc1 | > 100 µM (inactive) | > 100 µM (inactive) | > 100 µM (inactive) | > 100 µM (inactive) | > 100 µM (inactive) | > 100 µM (inactive) | > 100 µM (inactive) | 60.3 µM (inactive) | > 100 µM (inactive) | > 100 µM (inactive) | > 100 µM (inactive) | > 100 µM (inactive) | 14.9 µM (inactive) | > 100 µM (inactive) | > 100 µM (inactive) | > 100 µM (inactive) | > 100 µM (inactive) | > 100 µM (inactive) | > 100 µM (inactive) | 
10 | O=S(=O)(O)c1c(/N=N/c2c(O)ccc3ccccc23)ccc2ccccc12 | > 100 µM (inactive) | > 100 µM (inactive) | > 100 µM (inactive) | > 100 µM (inactive) | > 100 µM (inactive) | > 100 µM (inactive) | > 100 µM (inactive) | > 100 µM (inactive) | > 100 µM (inactive) |  | 70.1 µM (inactive) | > 100 µM (inactive) | > 100 µM (inactive) | > 100 µM (inactive) | > 100 µM (inactive) |  | > 100 µM (inactive) | > 100 µM (inactive) | > 100 µM (inactive) | 
11 | CC(=O)OCC(OC(C)=O)C(OC(C)=O)C(OC(C)=O)C(C=NN(C(C)=O)S(=O)(=O)c1ccc(/C=C2\NC(=O)N(C)C2=O)cc1)OC(C)=O (stereo not given) | 33.7 µM (inactive) | 27.9 µM (inactive) | 33.5 µM (inactive) | 22.6 µM (inactive) | 15.9 µM (inactive) |  | 23.7 µM (inactive) | 10.6 µM (inactive) | 27.2 µM (inactive) | 18.8 µM (inactive) | 29.3 µM (inactive) |  | 44.8 µM (inactive) | 36.1 µM (inactive) | 38.2 µM (inactive) | 37.4 µM (inactive) | 47 µM (inactive) | 17.1 µM (inactive) | 26.3 µM (inactive) | 16.3 µM (inactive)
12 | O=C(CSc1nnc(-c2ccccn2)s1)N/N=C/c1ccc([N+](=O)[O-])cc1 | 2.86 µM (inactive) | 65.8 µM (inactive) | 15.9 µM (inactive) | 14.5 µM (inactive) | 37.1 µM (inactive) | 16.3 µM (inactive) | 41.9 µM (inactive) | > 100 µM (inactive) | 41.8 µM (inactive) | > 100 µM (inactive) | > 100 µM (inactive) | 21.7 µM (inactive) | > 100 µM (inactive) | > 100 µM (inactive) | 21.9 µM (inactive) | 53.8 µM (inactive) | 58.5 µM (inactive) | 55.7 µM (inactive) | 35.6 µM (inactive) | 
13 | O=C1NC(N2CCCCC2)=N/C1=C\c1ccc(Cl)cc1 |  | 37.1 µM (inactive) | 34.1 µM (inactive) | 44.5 µM (inactive) | 41.5 µM (inactive) | 13 µM (inactive) | 28.7 µM (inactive) | > 100 µM (inactive) | 20.2 µM (inactive) |  | 74.5 µM (inactive) | 30.2 µM (inactive) | 36.6 µM (inactive) | 37.2 µM (inactive) | 37 µM (inactive) | 36.4 µM (inactive) | 38.5 µM (inactive) | 26.5 µM (inactive) | 46.7 µM (inactive) | 19.8 µM (inactive)
14 | CCCCCCCCCCCCCCCCCCNc1nc(=O)n(C2CC(O)C(COP(=O)(O)O)O2)cc1F (stereo not given) | > 100 µM (inactive) | 26.1 µM (inactive) | > 100 µM (inactive) | > 100 µM (inactive) | 42.9 µM (inactive) |  | 45.2 µM (inactive) | 36 µM (inactive) | 27.4 µM (inactive) | 35.5 µM (inactive) | > 67.1 µM (inactive) | > 100 µM (inactive) | > 100 µM (inactive) | 58.1 µM (inactive) | > 100 µM (inactive) | 10.8 µM (inactive) | 17.4 µM (inactive) | 81.7 µM (inactive) | 81.7 µM (inactive) | 15 µM (inactive)
15 | CCOC(=O)Nc1ccc(S(=O)(=O)Nc2ccc(Br)cc2)cc1 |  | 41 µM (inactive) | 29.7 µM (inactive) | 43 µM (inactive) | 31.5 µM (inactive) | 43.7 µM (inactive) | 36.8 µM (inactive) | 26.9 µM (inactive) | 23.3 µM (inactive) | 23.2 µM (inactive) | 14.6 µM (inactive) | 43.1 µM (inactive) | 61.4 µM (inactive) | 31 µM (inactive) | 73.5 µM (inactive) | 30.1 µM (inactive) | 60.1 µM (inactive) | 39.7 µM (inactive) | 33.5 µM (inactive) | 
